{"source": "patent US10689367B2", "about": "“Triazole pyridyl compounds as agonists of the APJ receptor” (AMGEN INC., priority 2016, dated 2020)", "data": [{"biological_target": "human APJ receptor (Homo sapiens (Human), UniProt P35414)", "sequence (P35414 whole entry)": "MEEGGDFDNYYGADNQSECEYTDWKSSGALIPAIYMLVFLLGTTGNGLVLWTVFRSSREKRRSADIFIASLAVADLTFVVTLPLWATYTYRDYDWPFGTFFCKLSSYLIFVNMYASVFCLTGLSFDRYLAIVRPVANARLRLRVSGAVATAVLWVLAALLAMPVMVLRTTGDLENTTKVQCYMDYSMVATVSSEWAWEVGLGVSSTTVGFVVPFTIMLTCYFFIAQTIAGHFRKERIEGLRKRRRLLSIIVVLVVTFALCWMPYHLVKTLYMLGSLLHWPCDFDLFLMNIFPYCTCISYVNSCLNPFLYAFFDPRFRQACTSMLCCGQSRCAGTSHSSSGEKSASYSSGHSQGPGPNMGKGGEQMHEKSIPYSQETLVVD", "assay": "[35S]GTPγS binding assay on membranes from CHO cells stably expressing human APJ receptor", "format": "biochemical", "conditions": "membranes of CHO cells stably expressing human APJ receptor, read-out: Activity hAPJ SPA EC50 IP", "method_in_brief": "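[35S]GTPγS binding measured on membranes from CHO cells stably expressing FLAG-tagged human APJ, with GDP, MgCl2 and NaCl levels optimized beforehand. Incubation 90 min at RT, imager read-out; EC50 from non-linear regression, averaged over several independent experiments.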", "units": {"EC50": "nM"}, "values": [{"molecule": "COc1cccc(-c2nnc(NS(=O)(=O)[C@@H](C)[C@H](OC)c3ncc(Cl)cn3)n2[C@H](C)c2cc(F)cc(F)c2)n1", "note": "(single isomer, unassigned) [Example 340.0, (1R,2S)-1-(5-chloropyrimidin-2-yl)-N-(4-((R)-1-(3,5-difluorophenyl)ethyl)-5-(6-methoxypyridin-2-yl)-4H-1,2,4-triazol-3-yl)-1-methoxypropane-2-sulfonamide or (1R,2S)-1-(5-chloropyrimidin-2-yl)-N-(4-((S)-1-(3,5-difluorophenyl)ethyl)-5-(6-methoxypyridin-2-yl)-4H-1,2,4-triazol-3-yl)-1-methoxypropane-2-sulfonamide]", "EC50": 0.18}, {"molecule": "COCC1(n2c(NS(=O)(=O)[C@@H](C)[C@H](OC)c3ncc(Cl)cn3)nnc2-c2ccccn2)CC1", "note": "[Example 61.0]", "EC50": 0.89}, {"molecule": "COc1cccc(-c2nnc(NS(=O)(=O)[C@@H](C)[C@H](OC)c3ncc(Cl)cn3)n2Cc2ccno2)n1", "note": "[Example 266.0, (1R,2S)-1-(5-chloropyrimidin-2-yl)-N-(4-(isoxazol-5-ylmethyl)-5-(6-methoxypyridin-2-yl)-4H-1,2,4-triazol-3-yl)-1-methoxypropane-2-sulfonamide]", "EC50": 9.6}, {"molecule": "COCC1(n2c(NS(=O)(=O)[C@@H](C)[C@H](OC)c3ncc(Cl)cn3)nnc2-c2cccnc2)CC1", "note": "[Example 60.0]", "EC50": 1.2}, {"molecule": "COc1cccc(-c2nnc(NS(=O)(=O)[C@@H](C)[C@H](OC)c3ncc(Cl)cn3)n2C2(C3CC3)CC2)n1", "note": "[Example 107.0]", "EC50": 0.42}, {"molecule": "COC[C@H](C)n1c(NS(=O)(=O)[C@@H](C)[C@@H](OC(C)C)c2ncc(Cl)cn2)nnc1-c1cccc(OC)n1", "note": "[Example 179.0, (1S,2S)-1-(5-chloro-2-pyrimidinyl)-N-(4-((2S)-1-methoxy-2-propanyl)-5-(6-methoxy-2-pyridinyl)-4H-1,2,4-triazol-3-yl)-1-(2-propanyloxy)-2-propanesulfonamide]", "EC50": 0.64}, {"molecule": "COc1cccc(-c2nnc(NS(=O)(=O)[C@@H](C)[C@H](OC)c3ncc(Cl)cn3)n2C[C@H]2CCCO2)n1", "note": "(single isomer, unassigned) [Example 280.0, (1R,2S)-1-(5-chloropyrimidin-2-yl)-1-methoxy-N-(5-(6-methoxypyridin-2-yl)-4-(((R)-tetrahydrofuran-2-yl)methyl)-4H-1,2,4-triazol-3-yl)propane-2-sulfonamide or (1R,2S)-1-(5-chloropyrimidin-2-yl)-1-methoxy-N-(5-(6-methoxypyridin-2-yl)-4-(((S)-tetrahydrofuran-2-yl)methyl)-4H-1,2,4-triazol-3-yl)propane-2-sulfonamide]", "EC50": 21}, {"molecule": "COc1cccc(-c2nnc(NS(=O)(=O)[C@@H](C)[C@H](OC)c3ncc(Cl)cn3)n2[C@@H](C)c2ccon2)n1", "note": "(single isomer, unassigned) [Example 264.0, (1R,2S)-1-(5-chloro-2-pyrimidinyl)-1-methoxy-N-(5-(6-methoxy-2-pyridinyl)-4-((1R)-1-(1,2-oxazol-3-yl)ethyl)-4H-1,2,4-triazol-3-yl)-2-propanesulfonamide or (1R,2S)-1-(5-chloro-2-pyrimidinyl)-1-methoxy-N-(5-(6-methoxy-2-pyridinyl)-4-((1S)-1-(1,2-oxazol-3-yl)ethyl)-4H-1,2,4-triazol-3-yl)-2-propanesulfonamide]", "EC50": 2.9}, {"molecule": "COc1cccc(-c2nnc(NS(=O)(=O)[C@@H](C)[C@H](OC)c3ncc(Cl)cn3)n2C2CC2(F)F)n1", "note": "(mixture of isomers) [Example 156.0, (1R,2S)-1-(5-Chloropyrimidin-2-yl)-N-(4-((S)-2,2-difluorocyclopropyl)-5-(6-methoxypyridin-2-yl)-4H-1,2,4-triazol-3-yl)-1-methoxypropane-2-sulfonamide and (1R,2S)-1-(5-chloropyrimidin-2-yl)-N-(4-((R)-2,2-difluorocyclopropyl)-5-(6-methoxypyridin-2-yl)-4H-1,2,4-triazol-3-yl)-1-methoxypropane-2-sulfonamide]", "EC50": 37}, {"molecule": "COCC1(n2c(NS(=O)(=O)[C@@H](C)[C@H](OC)c3ncc(Cl)cn3)nnc2-c2ccccn2)CCC1", "note": "[Example 51.0]", "EC50": 1.8}, {"molecule": "COc1cccc(-c2nnc(NS(=O)(=O)[C@@H](C)[C@H](OC)c3ncc(Cl)cn3)n2C[C@H]2CCCCO2)n1", "note": "(racemic) [Example 287.0, (1R,2S)-1-(5-chloropyrimidin-2-yl)-1-methoxy-N-(5-(6-methoxypyridin-2-yl)-4-(((R)-tetrahydro-2H-pyran-2-yl)methyl)-4H-1,2,4-triazol-3-yl)propane-2-sulfonamide or (1R,2S)-1-(5-chloropyrimidin-2-yl)-1-methoxy-N-(5-(6-methoxypyridin-2-yl)-4-(((S)-tetrahydro-2H-pyran-2-yl)methyl)-4H-1,2,4-triazol-3-yl)propane-2-sulfonamide]", "EC50": 5.9}, {"molecule": "COc1cccc(-c2nnc(NS(=O)(=O)[C@@H](C)[C@@H](OC(C)C)c3ncc(C)cn3)n2[C@@H](C)c2nc(C)no2)n1", "note": "(single isomer, unassigned) [Example 239.0]", "EC50": 2.6}, {"molecule": "COc1cccc(-c2nnc(NS(=O)(=O)[C@@H](C)[C@H](OC)c3ncc(Cl)cn3)n2[C@H](C)c2cscn2)n1", "note": "(single isomer, unassigned) [Example 344.0, (1R,2S)-1-(5-chloropyrimidin-2-yl)-1-methoxy-N-(5-(6-methoxypyridin-2-yl)-4-((S)-1-(thiazol-4-yl)ethyl)-4H-1,2,4-triazol-3-yl)propane-2-sulfonamide or (1R,2S)-1-(5-chloropyrimidin-2-yl)-1-methoxy-N-(5-(6-methoxypyridin-2-yl)-4-((R)-1-(thiazol-4-yl)ethyl)-4H-1,2,4-triazol-3-yl)propane-2-sulfonamide]", "EC50": 7.1}, {"molecule": "COCCn1c(NS(=O)(=O)[C@H](C)[C@@H](C)c2ncc(Cl)cn2)nnc1-c1cccnc1", "note": "(stereo in doubt) [Example 18.0, (2R,3S)-3-(5-chloro-2-pyrimidinyl)-N-(4-(2-methoxyethyl)-5-(3-pyridinyl)-4H-1,2,4-triazol-3-yl)-2-butanesulfonamide]", "EC50": 250}, {"molecule": "COc1cccc(-c2nnc(NS(=O)(=O)[C@@H](C)[C@H](OC)c3ncc(Cl)cn3)n2C[C@@H]2CCC[C@H](C)O2)n1", "note": "(single isomer, unassigned) [Example 306.0]", "EC50": 35}, {"molecule": "CCC(CC)n1c(NS(=O)(=O)[C@@H](C)[C@H](OC)c2ncc(Cl)cn2)nnc1-c1cccnc1", "note": "[Example 111.0]", "EC50": 27}, {"molecule": "COc1cc(Cn2c(NS(=O)(=O)[C@@H](C)[C@H](C)c3ncc(Cl)cn3)nnc2-c2cccc(OC)n2)on1", "note": "[Example 198.0, (2S,3R)-3-(5-chloro-2-pyrimidinyl)-N-(4-((3-methoxy-1,2-oxazol-5-yl)methyl)-5-(6-methoxy-2-pyridinyl)-4H-1,2,4-triazol-3-yl)-2-butanesulfonamide]", "EC50": 24}, {"molecule": "COc1cccc(-c2nnc(NS(=O)(=O)[C@@H](C)[C@H](OC)c3ncc(Cl)cn3)n2[C@H](C)c2cncs2)n1", "note": "(single isomer, unassigned) [Example 347.0, (1R,2S)-1-(5-chloropyrimidin-2-yl)-1-methoxy-N-(5-(6-methoxypyridin-2-yl)-4-((R)-1-(thiazol-5-yl)ethyl)-4H-1,2,4-triazol-3-yl)propane-2-sulfonamide or (1R,2S)-1-(5-chloropyrimidin-2-yl)-1-methoxy-N-(5-(6-methoxypyridin-2-yl)-4-((S)-1-(thiazol-5-yl)ethyl)-4H-1,2,4-triazol-3-yl)propane-2-sulfonamide]", "EC50": 0.48}]}]}
